Patent US9458203B2, “Integrin-blocking polypeptides and uses thereof” (priority 2011, dated 2016)
“And” between values parts separate entries of the source, which are not always exact repeats. Equal values may be shown once. Read-outs that look alike come from different tables or passages of the source. Ends that are not written are not given here.

Tests used:
[1] = tested on: human umbilical vein endothelial cells (HUVECs); test: inhibition of capillary formation of HUVECs (matrigel); assay type: cell-based; settings: 10 μg/ml; for inhibition at 10 µg/mL: Homo sapiens, HUVEC, read-out: inhibition rate (%) of capillary formation
Procedure: Thawing 10 mg/mL matrigel (BD Company, USA) stocked at −20° C. overnight at 4° C., diluting it with HUVEC culture medium at the ratio of 1:1; smearing 30 μl of the solution on a 96-well plate (Greiner Company, USA), placing the plate at a 37 incubator for 1 h of aggregation. Digesting the HUVECs with 0.2% ethylene diamine tetraacetic acid (EDTA) when they reached the logarithmic phase; collecting the cells and washing them with PBS buffer twice, and then resuspending the cells with blank HUVEC culture medium. Counting the cells under a microscope, adjusting the cell concentration to 1×10^5 cells/ml. Preparing the testing solution for all groups, and diluting with blank HUVEC culture medium to 100 μl. Seeding the cells into the 96-well plate, 100 μl for each well, adding also the testing solution into each well and incubating the cells in 5% CO2 at 37° C. After 6 h, 12 h, 24 h, 36 h, 48 h, 60 h of incubation, randomly choosing 5 FOVs for each dose, photographing and counting the cells; calculating the number of capillary structures at different doses and analyzing the inhibition effect of polypeptide II and polypeptide III on HUVECs' differentiating into capillaries. The inhibition rate of capillary formation was calculated in accordance with the following formula: […]
wherein Ntest is the number of capillary structures in the test groups while Ncontrol is the number of capillary structures in the negative control group.

melanoma B16F10 = test: transplanted melanoma B16F10 in C57BL/6 black mice; settings: for body weight of animals, in words / toxic and side effects, in words: mouse, in vivo
Procedure: Hypodermically injecting polypeptides and other drugs into the left axillary region of mice from the experimental groups respectively while administering only equal quantity of physiological saline to the mice from the negative control group. The total medication period was 14 days, during which cyclophosphamide was administered once every other day, taxol once every three days, low-dose polypeptide twice a day and all other drugs once a day.

human lung cancer H460 = settings: for body weight of animals, in words / toxic and side effects, in words: mouse, in vivo
Procedure: (§2) Taking a certain amount of vigorously growing tumor tissue, grinding the tumor tissue under sterile conditions and preparing cell suspension at the concentration of 1×10^7 cells/ml; then hypodermicaly inoculating 0.1 ml of the cell suspension into the right axillary region of nude mice. Keeping measuring the diameter of the transplanted tumor with a vernier caliper, and randomly dividing the mice into groups when the volume of the tumor reached 100-200 mm^3. Observing the dynamic effect of integrin-blocking polypeptides on inhibiting the growth of the tumor by means of documenting the change of tumor diameters. Measuring the tumor diameter once every other day and recording the body weight of mice simultaneously. Intravenously injecting polypeptides to mice from test groups while administering equal quantity of physiological saline to mice from the negative control group. The total medication period was 14 days. Avastin was adopted to set up a positive control group; it was administered through the tail vein once every three days while all other drugs were administered through the tail vein once a day. Leaving mice for a one-week rest after 14 days' medication, then (21 days after medication) killing the mice, surgically dissecting the tumors and measuring the weight of tumors. The tumor volume (TV) was calculated in accordance with the following formula: TV=½×a×b^2
(§3) Taxol used in the positive control group was administered once every 3 days through tail vein injection, while drugs of all other groups were administered on daily basis through tail vein injection.

[2] = tested on: human liver cancer SMMC-7721; settings: for body weight of animals, in words / toxic and side effects, in words: mouse, in vivo
Procedure: as §2, §3

[3] = tested on: human endometrial cancer HHUA; settings: for body weight of animals, in words / toxic and side effects, in words: mouse, in vivo
Procedure: as §2, §3

human brain tumor SF763 = settings: for body weight of animals, in words / toxic and side effects, in words / final weight: mouse, in vivo
Procedure: as §2, §3

[4] = tested on: human rectal cancer Colo 320; settings: for body weight of animals, in words / toxic and side effects, in words / final weight: mouse, in vivo
Procedure: as §2, §3

[5] = tested on: human cervical cancer HeLa; assay type: in vivo, nude mice; settings: mouse, in vivo
Procedure: (§4) Taking a certain amount of vigorously growing tumor tissue, grinding the tumor tissue under sterile conditions and preparing cell suspension at the concentration of 1×10^7 cells/ml; then hypodermicaly inoculating 0.1 ml of the cell suspension into the right axillary region of nude mice. Keeping measuring the diameter of the transplanted tumor with a vernier caliper, and randomly dividing the mice into groups when the volume of the tumor reached 100-200 mm^3. […] Measuring the tumor diameter once every other day and recording the body weight of mice simultaneously. Intravenously injecting polypeptides to mice from test groups while administering equal quantity of physiological saline to mice from the negative control group. The total medication period was 14 days. Avastin was adopted to set up a positive control group; it was administered through the tail vein once every three days while all other drugs were administered through the tail vein once a day. Leaving mice for a one-week rest after 14 days' medication, then (21 days after medication) killing the mice, surgically dissecting the tumors and measuring the weight of tumors. The tumor volume (TV) was calculated in accordance with the following formula: TV=½×a×b^2

[6] = tested on: human prostate cancer DU-145; assay type: in vivo, nude mice; settings: mouse, in vivo
Procedure: as §4

[7] = assay type: in vivo, nude mice; settings: mouse, in vivo
Text: (§1) The total medication period was 14 days.

[8] = tested on: human esophageal cancer Ec109; assay type: in vivo, nude mice; settings: mouse, in vivo
Text: as §1

[9] = tested on: human testicular cancer 5637; assay type: in vivo, nude mice; settings: mouse, in vivo
Text: as §1

sarcoma HT-1080 = assay type: in vivo, nude mice; settings: mouse, in vivo
Text: as §1

[10] = tested on: human bladder cancer HT1376; test: heterotransplanted human bladder cancer HT1376 in nude mice; assay type: in vivo; settings: for final weight: daily, tail vein injection
Text: as §1

[11] = tested on: human pancreatic cancer SW-1990; test: heterotransplanted human pancreatic cancer SW-1990 in nude mice; assay type: in vivo; settings: for final weight: daily, tail vein injection
Text: as §1

human colon cancer HT-29 = assay type: in vivo, nude mice; settings: mouse, in vivo
Procedure: as §4

[12] = tested on: human thyroid cancer SW-579; assay type: in vivo, nude mice; settings: mouse, in vivo
Procedure: as §4

human renal cancer A498 = assay type: in vivo, nude mice; settings: mouse, in vivo
Procedure: as §4

[13] = tested on: human ovarian cancer SK-OV-3; assay type: in vivo, nude mice; settings: mouse, in vivo
Procedure: as §4

[14] = tested on: human laryngeal cancer Hep-2; test: heterotransplanted human laryngeal cancer Hep-2 in nude mice; assay type: in vivo; settings: for final weight: body weight of nude mice, daily, tail vein injection
Text: as §1

[15] = tested on: human breast cancer MDA-MB-231; settings: mouse, in vivo
Procedure: as §2
(§5) wherein a, b refer to the length and width of the tumor respectively.
(§6) The relative tumor volume (RTV) can be calculated in accordance with the results of measurement, using the formula: RTV=Vt/V0, wherein V0 refers to the initial tumor volume measured on the date starting medication (namely d0) while Vt the tumor volume obtained through every measurement. The anti-tumor activity was evaluated by relative proliferation rate T/C (%), which was calculated in accordance with the following formula:
(§7) wherein TRTV refers to the RTV of experimental groups; CRTV refers to the RTV of the negative control group.

[16] = tested on: human gastric cancer MGC-803; settings: mouse, in vivo
Text: (§8) Keeping measuring the diameter of the transplanted tumor with a vernier caliper, and randomly dividing the mice into groups when the volume of the tumor reached 100-200 mm^3. Observing the dynamic effect of integrin-blocking polypeptides on inhibiting the growth of the tumor by means of documenting the change of tumor diameters. Measuring the tumor diameter once every other day and recording the body weight of mice simultaneously. Intravenously injecting polypeptides to mice from test groups while administering equal quantity of physiological saline to mice from the negative control group. The total medication period was 14 days. Avastin was adopted to set up a positive control group; it was administered through the tail vein once every three days while all other drugs were administered through the tail vein once a day. Leaving mice for a one-week rest after 14 days' medication, then (21 days after medication) killing the mice, surgically dissecting the tumors and measuring the weight of tumors. The tumor volume (TV) was calculated in accordance with the following formula: TV=½×a×b^2

[17] = tested on: human gallbladder cancer GBC-SD; settings: mouse, in vivo
Procedure: as §2
(§9) Avastin used in the positive control group was administered once every 2 days through tail vein injection, while drugs of all other groups were administered on daily basis through tail vein injection.

[18] = tested on: human gastric cancer MGC-803; test: heterotransplanted human gastric cancer MGC-803 in nude mice; settings: for final weight: tail vein daily
Text: as §8

[19] = tested on: human breast cancer MDA-MB-231; test: heterotransplanted human breast cancer MDA-MB-231 in nude mice; settings: for final weight: tail vein once a day, 14 days
Procedure: as §2, §5, §6, §7

[20] = tested on: human gallbladder cancer GBC-SD; test: heterotransplanted human gallbladder cancer GBC-SD in nude mice; settings: for final weight: daily, tail vein injection
Procedure: as §2, §9

[21] = 10 mg/kg/time, tail vein once every 3 days
[22] = positive control, tail vein once every 3 days
[23] = taxol 10 mg/kg/time, once every 3 days, tail vein injection
[24] = in contrast with the negative control group

CC(=O)O[C@H]1C(=O)[C@@]2(C)[C@H]([C@H](OC(=O)c3ccccc3)[C@]3(O)C[C@H](OC(=O)[C@H](O)[C@@H](NC(=O)c4ccccc4)c4ccccc4)C(C)=C1C3(C)C)[C@]1(OC(C)=O)CO[C@@H]1C[C@@H]2O [taxol, reference compound]
number of capillary structures (mean ± SD) ([1]; 6 h): 0.0 ± 0.0 | number of capillary structures (mean ± SD) ([1]; 12 h): 0.0 ± 0.0 | inhibition at 10 µg/mL ([1]; 6 h): 100% | inhibition at 10 µg/mL ([1]; 12 h): 100% | tumor weight (melanoma B16F10; 10 mg/kg/time once every three days, hypodermic, 14 days): 0.77 ± 0.62 g and 0.98 ± 0.30 g | body weight of animals, in words (melanoma B16F10): greatly reduced the body weight | toxic and side effects, in words (melanoma B16F10): severer toxic and side effects | tumor inhibition rate (human lung cancer H460; [21]): 68.21% | tumor weight (human lung cancer H460; [21]): 0.28 ± 0.07 g | body weight of animals, in words (human lung cancer H460): greatly reduced the body weight | toxic and side effects, in words (human lung cancer H460): more apparent toxic and side effects | tumor inhibition rate [2, 21]: 78.10% | tumor weight [2, 21]: 0.28 ± 0.05 g | body weight of animals, in words [2]: greatly reduced the body weight | toxic and side effects, in words [2]: more apparent toxic and side effects | tumor weight [3, 21]: 0.23 ± 0.07 g | body weight of animals, in words [3]: greatly reduced the body weight | toxic and side effects, in words [3]: more apparent toxic and side effects | body weight of animals, in words (human brain tumor SF763): greatly reduced the body weight | toxic and side effects, in words (human brain tumor SF763): more apparent toxic and side effects | inhibition rate on tumor (human brain tumor SF763; [22]): 76.29% | tumor inhibition rate (human brain tumor SF763; [23]): 76.29% | tumor weight (human brain tumor SF763; [23]): 0.28 ± 0.07 g | body weight of animals, in words [4]: greatly reduced the body weight | toxic and side effects, in words [4]: more apparent toxic and side effects | inhibition rate on tumor [4, 22]: 76.62% | tumor inhibition rate [4, 23]: 76.62% | tumor weight [4, 23]: 0.29 ± 0.07 g

FQPVLHLVALNSPLSGGMRGIRGADFQCFQQARAVGLAGTFRA [polypeptide I]
body weight of animals, in words (melanoma B16F10): no significant change | toxic and side effects, in words (melanoma B16F10): no significant toxic and side effects | body weight of animals, in words [5]: no significant change in body weight | toxic and side effects, in words [5]: no obvious toxic and side effects | body weight of animals, in words [6]: no significant change in body weight | toxic and side effects, in words [6]: no obvious toxic and side effects | body weight of animals, in words [7]: no significant change in body weight | body weight of animals, in words [8]: no significant change in body weight | toxic and side effects, in words [8]: no obvious toxic and side effects | toxic and side effects, in words [9]: no obvious toxic and side effects | body weight of animals, in words (sarcoma HT-1080): no significant change in body weight | toxic and side effects, in words (sarcoma HT-1080): no obvious toxic and side effects | final weight (sarcoma HT-1080; 0.75 mg/kg): 22.99 ± 0.51 g | final weight (sarcoma HT-1080; 1.5 mg/kg): 23.10 ± 0.64 g | final weight (sarcoma HT-1080; 3 mg/kg): 23.13 ± 0.38 g | final weight ([10]; 0.75 mg/kg/time): 23.17 ± 0.58 g | final weight ([10]; 1.5 mg/kg/time): 22.88 ± 0.66 g | final weight ([10]; 3 mg/kg/time): 23.14 ± 0.54 g | body weight of animals, in words [10, 24]: no significant change in body weight | toxic and side effects, in words ([10]; mouse, in vivo): no obvious toxic and side effects | final weight ([11]; 0.75 mg/kg/time): 23.06 ± 0.64 g | final weight ([11]; 1.5 mg/kg/time): 23.03 ± 0.65 g | final weight ([11]; 3 mg/kg/time): 22.86 ± 0.65 g | body weight of animals, in words [11, 24]: no significant change in body weight | toxic and side effects, in words ([11]; mouse, in vivo): no obvious toxic and side effects | body weight of animals, in words (human colon cancer HT-29): no significant change in body weight | toxic and side effects, in words (human colon cancer HT-29): no obvious toxic and side effects | body weight of animals, in words [12]: no significant change in body weight | toxic and side effects, in words [12]: no obvious toxic and side effects | body weight of animals, in words (human renal cancer A498): no significant change in body weight | toxic and side effects, in words (human renal cancer A498): no obvious toxic and side effects | body weight of animals, in words [13]: no significant change in body weight | toxic and side effects, in words [13]: no obvious toxic and side effects | final weight ([13]; 0.75 mg/kg): 23.09 ± 0.59 g | final weight ([13]; 1.5 mg/kg): 22.96 ± 0.59 g | final weight ([13]; 3 mg/kg): 23.16 ± 0.51 g | final weight ([14]; 0.75 mg/kg/time): 22.88 ± 0.63 g | final weight ([14]; 1.5 mg/kg/time): 23.21 ± 0.62 g | final weight ([14]; 3 mg/kg/time): 22.99 ± 0.62 g | body weight of animals, in words [14, 24]: no significant change in body weight | toxic and side effects, in words ([14]; mouse, in vivo): no obvious toxic and side effects | toxic and side effects, in words [15]: no obvious toxic and side effects | toxic and side effects, in words [16]: no obvious toxic and side effects | body weight of animals, in words (human lung cancer H460): no significant change in body weight | toxic and side effects, in words (human lung cancer H460): no obvious toxic and side effects | body weight of animals, in words [2]: no significant change in body weight | toxic and side effects, in words [2]: no obvious toxic and side effects | body weight of animals, in words [3]: no significant change in body weight | toxic and side effects, in words [3]: no obvious toxic and side effects | toxic and side effects, in words [17]: no obvious toxic and side effects | body weight of animals, in words (human brain tumor SF763): no significant change in body weight | toxic and side effects, in words (human brain tumor SF763): no obvious toxic and side effects | final weight (human brain tumor SF763; 0.75 mg/kg): 22.90 ± 0.69 g | final weight (human brain tumor SF763; 1.5 mg/kg): 22.99 ± 0.62 g | final weight (human brain tumor SF763; 3 mg/kg): 20.94 ± 0.47 g | body weight of animals, in words [4]: no significant change in body weight | toxic and side effects, in words [4]: no obvious toxic and side effects | final weight ([4]; 0.75 mg/kg): 23.11 ± 0.61 g | final weight ([4]; 1.5 mg/kg): 22.87 ± 0.57 g | final weight ([4]; 3 mg/kg): 20.99 ± 0.66 g | final weight ([18]; 0.75 mg/kg/time): 22.98 ± 0.60 g | final weight ([18]; 1.5 mg/kg/time): 22.66 ± 0.61 g | final weight ([18]; 3 mg/kg/time): 23.23 ± 0.67 g | body weight of animals, in words [18, 24]: no significant change in body weight | final weight ([19]; 0.75 mg/kg/time): 22.28 ± 1.75 g | final weight ([19]; 1.5 mg/kg/time): 20.21 ± 1.97 g | final weight ([19]; 3 mg/kg/time): 19.34 ± 1.13 g | body weight of animals, in words [19, 24]: no significant change in body weight | final weight ([20]; 0.75 mg/kg/time): 22.95 ± 0.46 g | final weight ([20]; 1.5 mg/kg/time): 23.04 ± 0.55 g | final weight ([20]; 3 mg/kg/time): 22.89 ± 0.51 g | body weight of animals, in words [20, 24]: no significant change in body weight
